Measurements from patent US20080161268A1, “[…] AMMONIUM SALT ANTIBACTERIAL AND WATER-BORNE COATING MATERIAL HAVING […] CONTAINING THE SAME” (COMPAL ELECTRONICS, INC., priority 2006, published 2008).

Columns and labels:
[1] = Test of the stability of antibacterial in latex paint; type: physicochemical; settings: pH about 7
Procedure: Four quaternary ammonium salt antibacterials A, B, C, and D shown in table 1 were prepared respectively, in which A was a quaternary ammonium salt antibacterial having the siloxane structure, and the other three antibacterials B, C, and D were quaternary ammonium salt antibacterials having no siloxane structure. Then, the four antibacterials A, B, C, and D were respectively added into a latex paint, and formulated to have a concentrations of 500, 1500, 2500, and 5000 ppm, and the pH value was adjusted to about 7. Changes of the antibacterials in the latex paint were observed.

[2] = Potential measurement (surface potential, Zetasizer Nano ZS); type: physicochemical; settings: concentration about 5%, pH 0-7, FIG. 1
Procedure: The methanol solution including 45% of the organic quaternary ammonium salt A having the siloxane structure and the methanol solution including 45% of the organic quaternary ammonium salt Bhaving no siloxane structure were respectively adjusted to a pH value of 0-7 by 0.1 N HCl and 0.1 N NaOH, and formulated to have a concentration of about 5%. The surface potentials were measured with Zetasizer, Nano ZS (Malvern, United Kingdom).

Bacteria = assay: Antibiotic experiment according to Japanese Standards Testing Method (JISZ 2801-2000); type: cell-based; settings: for Antimicrobial Activity Value: versus control group (neat cement paint)
Procedure: After formulating the organic quaternary ammonium salt having the siloxane structure to have a concentration of 5% and adjusting the pH value to be 7, an antibiotic experiment was performed according to Japanese Standards Testing Method (JISZ 2801-2000).

SMILES: CCCCCCCCCCCCCCCCCC[N+](C)(C)[Si](OC)(OC)OC.[Br-] [Antibacterial A]
- Miscibility in the latex paint ([1]; 500-5000 ppm): good miscibility
- Changes of the antibacterial in the latex paint ([1]; content of antibacterial 500 ppm): miscible
- Changes of the antibacterial in the latex paint ([1]; content of antibacterial 1500 ppm): miscible
- Changes of the antibacterial in the latex paint ([1]; content of antibacterial 2500 ppm): miscible
- Changes of the antibacterial in the latex paint ([1]; content of antibacterial 5000 ppm): miscible
- Electronegativity (surface potential) versus pH value [2]: increased with the increment of pH value
- Bacteriostatic Ratio (Bacteria; 0 h): less than 90%
- Bacteria count at 0 h * 3 sheets (Bacteria; 0 h, concentration 5%, pH 7): 3.73 × 10^5
- Antimicrobial Activity Value (Bacteria; 0 h): 0.47
- Bacteriostatic Ratio (Bacteria; 3 h): 99%
- Bacteria count at 3 h * 3 sheets (Bacteria; 3 h, concentration 5%, pH 7): 1.48 × 10^3
- Antimicrobial Activity Value (Bacteria; 3 h): 2.95
- Bacteriostatic Ratio (Bacteria; 24 h): 99.99%
- Bacteria count at 24 h * 3 sheets (Bacteria; 24 h, concentration 5%, pH 7): <10
- Antimicrobial Activity Value (Bacteria; 24 h): 4.89
- Bacteriostatic Ratio (Bacteria; concentration 5%, pH 7, time not given): greater than 99.99%
